Assay results published in PMC4508061, “Selectivity Profiling and Biological Activity of Novel β-Carbolines as Potent and Selective DYRK1 Kinase Inhibitors” (PLoS ONE, 2015).

Key:
Assay in all cases: ProQinase radiometric kinase panel
Conditions in all cases: mean of 2 exp.
EPHB4 = EPHB4 (Homo sapiens, UniProt P54760)
MARK2 = MARK2 (Homo sapiens, UniProt Q7KZI7)
CDK2/CycE1 = CDK2/CycE1 (Homo sapiens, UniProt P24941)
PKC-alpha = PKC-alpha (Homo sapiens, UniProt P17252)
TLK2 = TLK2 (Homo sapiens, UniProt Q86UE8)
Sequence of TLK2 (Q86UE8 whole entry): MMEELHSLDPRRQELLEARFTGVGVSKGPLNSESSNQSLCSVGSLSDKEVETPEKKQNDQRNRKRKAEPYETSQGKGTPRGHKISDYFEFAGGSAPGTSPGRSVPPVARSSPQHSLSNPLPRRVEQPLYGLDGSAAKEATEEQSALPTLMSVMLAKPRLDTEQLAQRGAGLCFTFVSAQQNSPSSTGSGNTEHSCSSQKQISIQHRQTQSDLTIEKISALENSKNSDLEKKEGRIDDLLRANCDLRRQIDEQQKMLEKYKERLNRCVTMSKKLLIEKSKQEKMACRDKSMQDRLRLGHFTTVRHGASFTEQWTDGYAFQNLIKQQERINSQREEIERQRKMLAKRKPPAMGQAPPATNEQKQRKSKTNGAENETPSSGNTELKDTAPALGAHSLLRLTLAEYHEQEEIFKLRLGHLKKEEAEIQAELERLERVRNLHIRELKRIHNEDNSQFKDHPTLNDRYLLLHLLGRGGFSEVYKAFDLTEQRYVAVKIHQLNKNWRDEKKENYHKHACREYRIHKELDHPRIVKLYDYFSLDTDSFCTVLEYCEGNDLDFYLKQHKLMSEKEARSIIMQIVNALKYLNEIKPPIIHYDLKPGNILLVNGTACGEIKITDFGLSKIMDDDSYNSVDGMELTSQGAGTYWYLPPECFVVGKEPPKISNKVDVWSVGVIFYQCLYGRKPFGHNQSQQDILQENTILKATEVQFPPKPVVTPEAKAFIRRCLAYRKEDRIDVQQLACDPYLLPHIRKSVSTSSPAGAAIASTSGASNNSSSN

PDGFR-alpha = PDGFR-alpha (Homo sapiens, UniProt P16234)
FGF-R2 = FGF-R2 (Homo sapiens, UniProt P21802)
EIF2AK3 = EIF2AK3 (Homo sapiens, UniProt Q9NZJ5)
Sequence of EIF2AK3 (Q9NZJ5 30-1116): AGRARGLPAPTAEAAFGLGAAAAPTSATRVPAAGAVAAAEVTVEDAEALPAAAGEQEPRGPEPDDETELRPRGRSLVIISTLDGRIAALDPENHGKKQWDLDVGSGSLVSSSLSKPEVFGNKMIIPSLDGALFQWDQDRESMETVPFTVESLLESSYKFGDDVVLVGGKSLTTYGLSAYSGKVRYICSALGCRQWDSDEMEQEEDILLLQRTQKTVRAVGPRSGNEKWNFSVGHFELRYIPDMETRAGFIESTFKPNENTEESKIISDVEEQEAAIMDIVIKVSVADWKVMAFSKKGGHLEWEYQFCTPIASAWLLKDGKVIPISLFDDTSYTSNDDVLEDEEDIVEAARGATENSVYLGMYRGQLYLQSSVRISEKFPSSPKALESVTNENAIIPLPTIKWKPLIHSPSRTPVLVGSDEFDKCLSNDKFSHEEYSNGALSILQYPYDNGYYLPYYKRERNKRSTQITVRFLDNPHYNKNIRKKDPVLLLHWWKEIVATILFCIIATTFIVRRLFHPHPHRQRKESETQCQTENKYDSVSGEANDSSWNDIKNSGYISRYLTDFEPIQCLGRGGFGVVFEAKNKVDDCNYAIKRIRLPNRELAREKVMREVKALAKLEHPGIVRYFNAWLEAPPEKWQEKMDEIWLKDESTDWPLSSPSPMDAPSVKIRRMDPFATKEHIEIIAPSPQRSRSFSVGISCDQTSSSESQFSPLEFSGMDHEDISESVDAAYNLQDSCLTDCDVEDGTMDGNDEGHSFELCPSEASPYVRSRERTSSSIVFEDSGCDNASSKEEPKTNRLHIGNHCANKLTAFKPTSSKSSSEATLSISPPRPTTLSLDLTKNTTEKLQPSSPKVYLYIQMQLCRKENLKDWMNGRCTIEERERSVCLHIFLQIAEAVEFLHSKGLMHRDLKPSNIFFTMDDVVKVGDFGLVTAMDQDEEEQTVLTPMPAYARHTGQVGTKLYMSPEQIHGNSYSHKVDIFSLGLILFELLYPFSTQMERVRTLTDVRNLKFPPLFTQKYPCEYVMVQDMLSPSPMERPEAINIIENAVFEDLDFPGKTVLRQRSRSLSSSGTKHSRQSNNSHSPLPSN

INS-R = INS-R (Homo sapiens, UniProt P06213)
TAOK3 = TAOK3 (Homo sapiens, UniProt Q9H2K8)
GRK5 = GRK5 (Homo sapiens, UniProt P34947)
CAMK1D = CAMK1D (Homo sapiens, UniProt Q8IU85)
Sequence of CAMK1D (Q8IU85 whole entry): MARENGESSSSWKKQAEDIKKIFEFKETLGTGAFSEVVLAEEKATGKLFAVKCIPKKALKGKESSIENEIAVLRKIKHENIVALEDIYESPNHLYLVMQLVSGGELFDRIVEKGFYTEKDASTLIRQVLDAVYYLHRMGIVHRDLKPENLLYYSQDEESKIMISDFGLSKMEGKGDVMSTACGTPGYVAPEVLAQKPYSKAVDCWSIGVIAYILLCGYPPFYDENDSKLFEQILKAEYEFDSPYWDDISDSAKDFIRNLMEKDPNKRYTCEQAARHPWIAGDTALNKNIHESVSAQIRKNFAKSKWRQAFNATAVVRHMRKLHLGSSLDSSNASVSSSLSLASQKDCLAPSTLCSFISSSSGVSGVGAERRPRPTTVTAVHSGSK

FGF-R3 = FGF-R3 (Homo sapiens, UniProt P22607)
Sequence of FGF-R3 (P22607 23-806): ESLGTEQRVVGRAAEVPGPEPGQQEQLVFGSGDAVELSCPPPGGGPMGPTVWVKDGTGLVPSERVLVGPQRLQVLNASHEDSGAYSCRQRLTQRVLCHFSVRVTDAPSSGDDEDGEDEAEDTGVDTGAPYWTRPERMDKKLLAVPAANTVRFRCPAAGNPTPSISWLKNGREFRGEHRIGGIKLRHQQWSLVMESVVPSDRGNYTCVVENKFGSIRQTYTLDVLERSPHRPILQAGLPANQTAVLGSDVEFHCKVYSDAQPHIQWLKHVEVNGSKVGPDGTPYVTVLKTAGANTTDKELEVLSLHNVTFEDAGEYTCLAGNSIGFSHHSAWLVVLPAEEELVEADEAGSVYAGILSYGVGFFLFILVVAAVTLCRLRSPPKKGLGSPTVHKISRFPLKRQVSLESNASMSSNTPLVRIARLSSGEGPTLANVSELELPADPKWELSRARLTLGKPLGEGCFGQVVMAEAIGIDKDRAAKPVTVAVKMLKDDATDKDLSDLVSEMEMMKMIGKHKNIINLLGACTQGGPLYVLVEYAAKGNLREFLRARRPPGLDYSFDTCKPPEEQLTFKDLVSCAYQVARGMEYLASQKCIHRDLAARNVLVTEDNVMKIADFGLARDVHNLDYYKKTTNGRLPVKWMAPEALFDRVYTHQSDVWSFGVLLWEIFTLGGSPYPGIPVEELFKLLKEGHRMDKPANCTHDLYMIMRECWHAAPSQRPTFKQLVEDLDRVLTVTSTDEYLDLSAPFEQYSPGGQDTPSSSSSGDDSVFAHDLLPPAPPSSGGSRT

CDK9/CycK = CDK9/CycK (Homo sapiens, UniProt P50750)
ARK5 = ARK5 (Homo sapiens, UniProt O60285)
SNARK = SNARK (Homo sapiens, UniProt Q9H093)
PAK4 = PAK4 (Homo sapiens, UniProt O96013)
PKC-mu = PKC-mu (Homo sapiens, UniProt Q15139)
ERBB2 = ERBB2 (Homo sapiens, UniProt P04626)
PRKD2 = PRKD2 (Homo sapiens, UniProt Q9BZL6)
Sequence of PRKD2 (Q9BZL6 whole entry): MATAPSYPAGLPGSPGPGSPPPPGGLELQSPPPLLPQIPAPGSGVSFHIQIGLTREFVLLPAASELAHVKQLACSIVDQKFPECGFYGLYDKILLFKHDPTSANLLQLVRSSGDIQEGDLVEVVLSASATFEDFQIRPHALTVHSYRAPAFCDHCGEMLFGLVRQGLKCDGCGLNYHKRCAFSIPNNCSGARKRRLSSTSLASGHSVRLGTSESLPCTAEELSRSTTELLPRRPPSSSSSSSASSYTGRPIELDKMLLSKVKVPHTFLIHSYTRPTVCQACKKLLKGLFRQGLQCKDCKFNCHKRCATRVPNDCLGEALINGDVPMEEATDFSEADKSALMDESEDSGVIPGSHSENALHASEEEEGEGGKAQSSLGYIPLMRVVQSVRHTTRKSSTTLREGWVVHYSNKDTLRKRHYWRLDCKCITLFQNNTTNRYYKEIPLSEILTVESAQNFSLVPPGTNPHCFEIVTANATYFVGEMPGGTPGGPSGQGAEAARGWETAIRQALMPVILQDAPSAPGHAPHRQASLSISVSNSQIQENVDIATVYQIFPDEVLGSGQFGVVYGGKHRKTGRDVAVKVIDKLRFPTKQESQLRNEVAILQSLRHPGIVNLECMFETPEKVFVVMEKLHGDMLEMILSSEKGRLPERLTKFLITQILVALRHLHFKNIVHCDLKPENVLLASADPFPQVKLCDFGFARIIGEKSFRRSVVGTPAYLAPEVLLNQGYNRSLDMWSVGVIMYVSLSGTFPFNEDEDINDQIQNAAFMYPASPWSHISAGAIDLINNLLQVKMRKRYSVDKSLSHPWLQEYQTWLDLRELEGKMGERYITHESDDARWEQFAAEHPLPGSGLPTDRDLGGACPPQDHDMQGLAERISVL

PAK7 = PAK7 (Homo sapiens, UniProt Q9P286)
DAPK2 = DAPK2 (Homo sapiens, UniProt Q9UIK4)
EPHA7 = EPHA7 (Homo sapiens, UniProt Q15375)
ROS = ROS (Homo sapiens, UniProt P08922)
CAMK2D = CAMK2D (Homo sapiens, UniProt Q13557)
PKC-eta = PKC-eta (Homo sapiens, UniProt P24723)
ACK1 = ACK1 (Homo sapiens, UniProt Q07912)
TXK = TXK (Homo sapiens, UniProt P42681)
KIT = KIT (Homo sapiens, UniProt P10721)
Method: Gini coefficients were calculated and the Lorenz curve (Fig 3B) was plotted by applying the Microsoft Excel spreadsheet provided by Graczyk [44].
radiometric protein kinase assays.

GRK7 = GRK7 (Homo sapiens, UniProt Q8WTQ7)
IRAK4 = IRAK4 (Homo sapiens, UniProt Q9NWZ3)
Sequence of IRAK4 (Q9NWZ3 whole entry): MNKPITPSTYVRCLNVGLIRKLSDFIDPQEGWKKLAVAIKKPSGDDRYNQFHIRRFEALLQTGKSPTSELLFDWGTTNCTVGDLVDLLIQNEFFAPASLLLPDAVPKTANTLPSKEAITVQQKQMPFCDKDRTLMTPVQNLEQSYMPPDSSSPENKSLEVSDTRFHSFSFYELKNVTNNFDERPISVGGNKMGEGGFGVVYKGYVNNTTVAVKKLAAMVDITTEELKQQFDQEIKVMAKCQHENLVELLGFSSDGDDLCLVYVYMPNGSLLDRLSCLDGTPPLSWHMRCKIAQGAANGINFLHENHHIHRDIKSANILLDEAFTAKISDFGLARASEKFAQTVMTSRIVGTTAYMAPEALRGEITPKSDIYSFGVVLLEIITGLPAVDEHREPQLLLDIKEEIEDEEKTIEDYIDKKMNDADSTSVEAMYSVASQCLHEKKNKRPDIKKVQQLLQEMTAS

WNK1 = WNK1 (Homo sapiens, UniProt Q9H4A3)
MST3 = MST3 (Homo sapiens, UniProt Q9Y6E0)
BMPR1A = BMPR1A (Homo sapiens, UniProt P36894)
PLK1 = PLK1 (Homo sapiens, UniProt P53350)
mTOR = mTOR (Homo sapiens, UniProt P42345)
SRPK1 = SRPK1 (Homo sapiens, UniProt Q96SB4)
RPS6KA3 = RPS6KA3 (Homo sapiens, UniProt P51812)
RPS6KA2 = RPS6KA2 (Homo sapiens, UniProt Q15349)

COc1ccc2c3ccnc(Cl)c3n(CC#N)c2c1 [AnnH75]
residual activity at 1 µM, Mean (EPHB4): 95 % of control | residual activity at 1 µM, Mean (MARK2): 98 % of control | residual activity at 1 µM, Mean (CDK2/CycE1): 97 % of control | residual activity at 1 µM, Mean (PKC-alpha): 111 % of control | residual activity at 1 µM, Mean (TLK2): 108 % of control | residual activity at 1 µM, Mean (PDGFR-alpha): 102 % of control | residual activity at 1 µM, Mean (FGF-R2): 85 % of control | residual activity at 1 µM, Mean (EIF2AK3): 99 % of control | residual activity at 1 µM, Mean (INS-R): 92 % of control | residual activity at 1 µM, Mean (TAOK3): 103 % of control | residual activity at 1 µM, Mean (GRK5): 95 % of control | residual activity at 1 µM, Mean (CAMK1D): 102 % of control | residual activity at 1 µM, Mean (FGF-R3): 107 % of control | residual activity at 1 µM, Mean (CDK9/CycK): 52 % of control | residual activity at 1 µM, Mean (ARK5): 94 % of control | residual activity at 1 µM, Mean (SNARK): 95 % of control | residual activity at 1 µM, Mean (PAK4): 94 % of control | residual activity at 1 µM, Mean (PKC-mu): 100 % of control | residual activity at 1 µM, Mean (ERBB2): 102 % of control | residual activity at 1 µM, Mean (PRKD2): 90 % of control | residual activity at 1 µM, Mean (PAK7): 90 % of control | residual activity at 1 µM, Mean (DAPK2): 97 % of control | residual activity at 1 µM, Mean (EPHA7): 107 % of control | residual activity at 1 µM, Mean (ROS): 94 % of control | residual activity at 1 µM, Mean (CAMK2D): 87 % of control | residual activity at 1 µM, Mean (PKC-eta): 79 % of control | residual activity at 1 µM, Mean (ACK1): 97 % of control | residual activity at 1 µM, Mean (TXK): 94 % of control | residual activity at 1 µM, Mean (KIT): 82 % of control | residual activity at 1 µM, Mean (GRK7): 103 % of control | residual activity at 1 µM, Mean (IRAK4): 92 % of control | residual activity at 1 µM, Mean (WNK1): 98 % of control | residual activity at 1 µM, Mean (MST3): 104 % of control | residual activity at 1 µM, Mean (BMPR1A): 89 % of control | residual activity at 1 µM, Mean (PLK1): 93 % of control | residual activity at 1 µM, Mean (mTOR): 90 % of control | residual activity at 1 µM, Mean (SRPK1): 111 % of control | residual activity at 1 µM, Mean (RPS6KA3): 101 % of control | residual activity at 1 µM, Mean (RPS6KA2): 97 % of control
